We go through two compounds from US20220267753A1, “RATIONAL THERAPEUTIC TARGETING OF ONCOGENIC IMMUNE SIGNALING STATES IN MYELOID MALIGNANCIES VIA THE UBIQUITIN CONJUGATING ENZYME UBE2N” (CHILDREN'S HOSPITAL MEDICAL CENTER, priority 2019, published 2022).

pEC50, pIC50: −log10 of the molar value. Converted amounts (≈) assume the structure as drawn.

The subject of one series is MOLM-13. Kind of series: Cell proliferation MTS assay / cytotoxicity screen. It is filed as cell-based, human. As to conditions: for cytotoxicity screen in MOLM-13 cells: 2nd screen at 2 μM, 24 hr MTS. The method, then: AML cell lines (5×10^3 cells/well) were seeded in 96-well plates and grown for 24 to 96 h in serum (10%)-containing medium in the presence or absence of inhibitors at the indicated concentrations. Proliferation was analyzed by means of an MTS assay using the CellTiter 96 Aqueous One Solution Cell Proliferation Assay (Promega, Madison, Wis., USA), according to the manufacturer's instructions. Data are mean with standard deviation from three independent experiments in technical triplicates. For the screening of 160 compounds from the UC library, the cell metabolic activity was assessed at 24 hours of treatment of MOLM-13 cells. Top 15 candidates were re-screened at 2 μM, and the cell metabolic activity was determined at 24 hours of treatment. In certain experiments, cell viability was determined by staining the cells with trypan blue at a 1/2 dilution and counting total number of viable cells upon treatment with UC-764864 or DMSO control. The cells were counted daily for 4 days using an automated cell counter (Countess II FL from Life Technologies). The cell proliferation in primary AMLs in FIG. 9E was performed as follows: 50,000 cells were plated in duplicate in a 96 well plate in IMDM containing 20% heat inactivated FBS plus 10 ng/ml of each SCF, IL3, IL6, TPO, and FLT3. UC-764864 was added at the indicated concentrations and cells were incubated with drug for 3 days, at which point cell viability was measured by MTS according to manufacturer's instructions.
(In general: Tetrazolium assays rely on reduction of a dye to a coloured formazan, in cell work by metabolically active cells.)

The next series can be described thus: Aqueous solubility. It is filed as physicochemical. As to conditions: aqueous medium (not further specified); read-out: Aqueous Solubility, highest soluble concentration.
Another series has as its target T1, UBE2N (Homo sapiens, UniProt P61088).
T1 sequence (P61088 1-152): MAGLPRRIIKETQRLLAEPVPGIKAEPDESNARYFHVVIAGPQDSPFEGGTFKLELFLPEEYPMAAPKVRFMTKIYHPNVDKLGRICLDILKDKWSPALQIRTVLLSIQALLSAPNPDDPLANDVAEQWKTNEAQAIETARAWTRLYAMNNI
As to the kind of experiment: Cellular thermal shift assay (CETSA) in MOLM-13 cells. Details: quantification of Ts, for endogenous UBE2N; endogenous in cells; host or cells: MOLM-13. It is filed as binding. As to conditions: MOLM-13, 1 hour, heat challenge at Tagg(75); read-out: EC50 of stabilization of UBE2N (CETSA). Here is the method: CETSA was performed with MOLM-13 cells cultured in RPMI medium supplemented with 10% FBS. For an initial determination of the melting profile of UBE2N, fresh cell lysate prepared in non-denaturing buffer was dispensed into 96-well PCR plate in the above medium (approx. 8000 cells/well/50 μl), then was subjected to temperature gradient (37-60° C.) for 20 min. Subsequently, centrifugation was performed at 14,000 rpm to sediment the unstable protein content. Supernatant was collected and SDS-PAGE gel was run, and immuno-detection was performed for UBE2N using corresponding primary antibody. Band intensity was quantified on LI-COR C-Digit Blot Scanner, and subsequently Tagg(50) and Tagg(75) values were calculated for UBE2N. In a subsequent run, fresh lysates of MOLM-13 cells were treated at various doses with 4-fold dilutions (10, 2.5, 0.62, 0.15, 0.04, 0.01 and 0.002 .tM) of compounds UC-764864 and UC-764865 together with DMSO control, for 1 hour. Samples were then subjected to heat challenge at Tagg(75) for 20 min, and unstable protein was removed by centrifugation step. Following an immuno-blotting step, bands of remaining stable UBE2N were quantified, normalized to loading control and plotted using GraphPad Prism software. EC50 values of engagement for both compounds with UBE2N were subsequently calculated.

A short description of another series: Plasma stability. It is filed as in vitro ADME. Further details: half-life: dose or concentration left out as unconfirmed. The conditions noted are these: C57/Bl6 plasma, concentration 1 (mM), K2EDTA; for half-life: mouse, read-out: Plasma Stability T ½.
Series [1] is described as follows: Microsomal stability (mouse liver microsomes). Type of series: in vitro ADME, C57/Bl6. The conditions noted are these: for Microsomal Stability % Remaning at T60 / CLint scaled / half-life: C57/Bl6, concentration 1 (mM), matrix 0.5 mg/ml; for CLint scaled: C57/Bl6, mouse; for CLint scaled / half-life: liver microsomes; for half-life: mouse, read-out: Microsomal Stability T ½. For orientation: Microsomes from liver hold many membrane-bound enzymes, among them those of drug oxidation.

For another series, the system named is cord blood CD34+ cells. Kind of series: Colony formation (clonogenic) assay in healthy cells. It is filed as cell-based, human. The method, then: In order to determine viability after UBE2N knockdown or inhibition, 1×10^6 AML cells were washed with PBS and mixed with pre-diluted APC-conjugated Annexin V (BD Pharmigen, Franklin Lakes, N.J.) and Propidium iodide (PI) (Invitrogen ThermoFisher 00-6990-42, Waltham, Mass.). Cells were stained at room temperature for 15 minutes and suspended in 0.5 ml of Annexin V incubation buffer (eBiosciences 88-8007-74, San Diego, Calif.) for analysis using a BD FACS Canto System (BD Biosciences, San Jose, Calif.). For UBE2N knockdown experiments, PI−/GFP+ cells were sorted using a MoFlo XDP sorter (Beckman Coulter, Brea, Calif.) and plated in methylcellulose (StemCell Technologies H4236, Vancouver, CA) at 1000 cells/ml in 35 mm culture dishes. For UBE2N inhibition experiments, cell lines were plated in methycellulose (StemCell Technologies H4236, Vancouver, CA) at the indicated concentrations of inhibitor. Cells were incubated at 37° C. and 5% CO2. Colonies were scored after 7 days in culture. For UBE2N or UBE2N C87S overexpression experiments, MOLM-13 cells were transduced with lentivectors overexpressing UBE2N wild type or mutant in the presence of polybrene (8 μg/ml). […] Colonies were scored at 7 days. […] Colonies were manually scored at 14-16 days after plating or counted with STEMVision (StemCell Technologies, Vancouver, CA).

One may read the pEC50 as −log10 of the EC50, conventionally taken in molar units. The CLint scaled is a measure of how fast metabolising enzymes remove a compound, apart from limits set by blood flow. `COc1ccc(C(=O)C=CSc2nc3ccc(C)cc3[nH]2)cc1` [UC-764865, 1-(4-methoxyphenyl)-3-[(6-methyl-1H-benzimidazol-2-yl)sulfanyl]prop-2-en-1-one]: the “cytotoxicity screen in MOLM-13 cells” value in the series with MOLM-13 is “cytotoxic effects”. In “Aqueous solubility”, the solubility worked out at 5 µM (≈ 1.62 µg/mL). Moreover, the pEC50 on UBE2N was 6.38. For the same compound, in the series “Plasma stability”, the “Plasma Stability % Remaning at T60” value came to 39.6% and the half-life was 53.6 min. For the same compound, in series [1], the “Microsomal Stability % Remaning at T60” value is 0.2%, the CLint scaled came to 1100 mL/min/kg and the half-life amounted to 4.97 min.

As a reminder, the pIC50 is the IC50 on a negative log10 scale, so that one unit is a factor of ten. `CCc1ccc(C(=O)C=CSc2nc3ccc(C)cc3[nH]2)cc1` [UC-764864, 1-(4-ethylphenyl)-3-[(6-methyl-1H-benzimidazol-2-yl)sulfanyl]prop-2-en-1-one]: the “cytotoxicity screen in MOLM-13 cells” value in the series on MOLM-13 is “cytotoxic effects”. The pIC50 with MOLM-13 (Homo sapiens, MOLM-13, MTS, 24 hours) is 5.72. In addition, the solubility in the series “Aqueous solubility” came out at 1 µM (≈ 0.322 µg/mL). Moreover, the “clonogenic potential of cord blood CD34+ cells” value with cord blood CD34+ cells was “did not affect”. In addition, the negative-log EC50 (pEC50) at UBE2N is 5.66. In addition, in “Plasma stability”, the “Plasma Stability % Remaning at T60” value is recorded as 21.4% and the half-life turned out to be 31.8 min. Also, in series [1], the “metabolism in mouse liver microsomes” value is “readily metabolized”, the “Microsomal Stability % Remaning at T60” value was found to be 0.02%, the CLint scaled stood at 1090 mL/min/kg and the half-life is 4.99 min.
